# Measured values as given in patent US20060035927A1, “Calcilytic compounds” (SmithKline Beecham Corporation, priority 1999, published 2006).
# Where a name gives a salt, the structure may show the parent alone.
# How the values were obtained:
# osteopenic ovx rats [1] = assay: Ovariectomized rat Study 1: bone mineral density by DXA; assay type: in vivo; conditions: Study 1, ovx rats, 100 mmol/kg body weight daily p.o., eight weeks of dosing
# Description: (§1) Seven month old virgin Sprague Dawley female rats were subjected to bilateral ovariectomy or sham surgery and the animals then held for a period of three months to allow the development of osteopenia. At that time a single sham group (n=10) and three groups of ovariectomized (ovx) animals (n=10-14) were assigned. The ovx groups were selected such that there was no significant difference in bone mineral density (“BMD”) of the lumbar spine, proximal tibia or distal femur between groups. Groups consisted of sham and ovx controls treated with dose vehicle (20% aqueous encapsin) and ovx groups treated with either N-[(2R-Hydroxy-3-[(3-chloro-2-cyano)phenoxy-propyl]-1,1-dimethyl-2-(2-naphthyl)ethyl amine hydrochloride (“calcilytic administered”) ([…] body weight daily p.o.) or rat PTH 1-34 (5 ug/kg body weight daily s.c.).
# (§2) During the study blood samples were drawn for determination of circulating PTH and osteocalcin. BMD was determined by DXA (QDR4500 Hologic, Waltham, Mass.) prior to treatment and at weeks 4 and 8. At term tibiae were removed for histological analysis. All animals received tetracycline 10 and 3 days prior to the start of dosing and calcein (10 mg/kg) 10 and 3 days prior to sacrifice.
# human osteoclasts = assay: Human osteoclast-mediated bone resorption assay; assay type: cell-based; conditions: concentrations up to 3 uM, 24 hours
# Method: The isolation of disaggregated human osteoclasts from fresh osteoclastoma tissue and the in vitro human osteoclast resorption assay were performed according to James, J. Bone Min. Res., Vol. 11, pp. 1453-1460. Briefly, human osteoclasts were seeded onto bovine cortical bone particles with compound or vehicle for 24 hours at 37° C. The culture media were then removed and the levels of the carboxy-terminal peptide of the α1 chain of human type I collagen were quantified as a biochemical readout of resorption, using a competitive binding enzyme linked immunosorbant assay (ELISA) (19) (Osteometer A/S, Rodovre, Denmark). The results are expressed as percent inhibition of resorption compared to supernatants derived from osteoclasts cultured in vehicle without inhibitor. IC50 values are determined from the resultant dose response curves.
# osteopenic ovx rats [2] = assay: Ovariectomized rat Study 2: calcilytic plus/minus 17β estradiol, histology and histomorphometry of proximal tibia; assay type: in vivo; conditions: Study 2, proximal tibia, static histomorphometry, vs ovx group
# Method: Animals were prepared and monitored as described above. […] Dosing continued for 5 weeks at which point the animals were sacrificed and the tibiae were collected for histological analysis. Bone samples were dehydrated through increasing concentrations of ethanol, defatted in acetone and embedded in methyl methacrylate (Polysciences, Inc., Warrington, Pa.). Longitudinal undecalcified sections (5 μm) sections of the proximal tibial were cut on a Leica microtome (S[…]); the tissue blocks had been prestained with Villanueva stain. Histomorphometric analysis was carried out using an Osteomeasure system (OsteoMetrics Incorpotated), without knowledge of group allocation. Measurements within the tibial metaphysis were restricted to a mean tissue area of approximately 8 mm^2 beginning 1 mm below the growth plate. Primary measurements included area of bone and marrow (mm^2), bone area (mm^2), perimeter of bone (mm), single and double-labelled perimeter (sL.Pm, dL.Pm, m), osteoid perimeter (O.Pm, m) and eroded perimeter (Er.P, m). […] Statistical analysis was assessed by a two sided t-test.
# osteopenic ovx rats [3] = assay: Ovariectomized rat Study 1: dynamic histomorphometry of proximal tibia; assay type: in vivo
# Description: as §1, §2
# Bone samples were dehydrated through increasing concentrations of ethanol, defatted in acetone and embedded in methyl methacrylate (Polysciences, Inc., Warrington, Pa.). Longitudinal undecalcified sections (5 μm) sections of the proximal tibial were cut on a Leica microtome (SM2500S); the tissue blocks had been prestained with Villanueva stain. Histomorphometric analysis was carried out using an Osteomeasure system (OsteoMetrics Incorpotated), without knowledge of group allocation. Measurements within the tibial metaphysis were restricted to a mean tissue area of approximately 8 mm^2 beginning 1 mm below the growth plate. Primary measurements included area of bone and marrow (mm^2), bone area (mm^2), perimeter of bone (mm), single and double-labelled perimeter (sL.Pm, dL.Pm, m), osteoid perimeter (O.Pm, m) and eroded perimeter (Er.P, m). Derived indices included trabecular bone volume (% Tb.Ar), trabecular number (Th.N, mm^−1), trabecular thickness (Th.Th, μm), trabecular separation (Th.Sp, μm), bone formation rate, surface referent (BFR/Tb.Pm, μm^3/μm^2/year), BFR/Tb.Ar (bone area referent, %/year), BFR/B.Ar (tissue referent, %/year) and mineral apposition rate (MAR, μm/day), and percent labelled perimeter (% Lp). Statistical analysis was assessed by a two sided t-test.
# [4] = test system: human TF274 osteoblastic cells; assay: Osteoblast cAMP production, TF274 cells; assay type: cell-based; conditions: compound 0.1, 1 and 10 uM
# Method: cAMP accumulation was measured in both human TF274 osteoblastic cells (derived by immortalization of human bone marrow stromal cells) see James, supra, and primary human osteoblasts derived from explants of trabecular bone as described in Beresford, Biochim. Biophys. Acta, Vol. 801, pp. 58-65 ([…]). cAMP levels in cell samples were measured using a non-radioactive protocol (Amersham kit). Alkaline phosphatase activity was determined using the standard colorimetric method as described previously in Gowen, Arth. Rheum., Vol. 31, pp. 1500-1507 (1988). N-[(2R-Hydroxy-3-[(3-chloro-2-cyano)phenoxy-propyl]-1,1-dimethyl-2-(2-naphthyl)ethyl amine hydrochloride was tested at 0.1, 1 and 10 uM. PTH 40 ng/ml was used as a positive control.
# plasma PTH = assay: Ovariectomized rat Study 1: circulating PTH levels (RIA); assay type: in vivo
# Description: as §1, §2
# Timed plasma samples were collected relative to administration of compound or PTH. PTH 1-34 was measured by RIA (Nichols Institute Diagnostics, San Juan Capistrano, Calif.). The concentrations of compound in the plasma were quantified by LC/MS/MS (limit of detection 10 ng/ml).
# [5] = Study 1, proximal tibia, vs ovx control, calcilytic 100 mmol/kg p.o. or PTH 5 ug/kg s.c. daily
compound,measurement,setting,value
"CC(C)(Cc1ccc2ccccc2c1)NC[C@@H](O)COc1cccc(Cl)c1C#N [N-[(2R-Hydroxy-3-[(3-chloro-2-cyano)phenoxy-propyl]-1,1-dimethyl-2-(2-naphthyl)ethylamine hydrochloride]","bone mass (BMD; lumbar spine, distal femur, proximal tibia)",osteopenic ovx rats [1],unaffected
same,effect on human osteoclast mediated bone resorption,human osteoclasts,no effect
same,% trabecular area (% Tb.Ar.) / ovx-induced bone loss,osteopenic ovx rats [2],no effect
same,"bone formation and resorption, net bone gain or loss","osteopenic ovx rats [3]; Study 1, overall outcome","dramatic increase in both bone formation and resorption, with no net bone gain or loss"
same,"bone turnover, BFR/B.Ar.","osteopenic ovx rats [3]; Study 1, proximal tibia, compared with PTH and ovx control groups",dramatic increase
same,"bone resorption, % eroded perimeter","osteopenic ovx rats [3]; Study 1, proximal tibia, vs PTH or ovx control groups",significantly higher
same,bone formation: % labeled perimeter (% L.Pm.),osteopenic ovx rats [3]; [5],elevated above the ovx control level
same,bone formation: % osteoid perimeter (% Os.Pm),osteopenic ovx rats [3]; [5],elevated above the ovx control level
same,PTH-induced cAMP levels,[4]; PTH 40 ng/ml,no effect
same,cAMP levels (basal),[4]; PTH 40 ng/ml positive control,no effect
same,plasma PTH levels at four hours after administration,"plasma PTH; Study 1, after calcilytic 100 mmol/kg p.o.",remained high
same,plasma PTH levels,"plasma PTH; Study 1, end of experiment, after calcilytic 100 mmol/kg p.o.",> 100 pg/mL
same,plasma PTH levels after 24 hours,"plasma PTH; Study 1, immediately prior to next dose of calcilytic",back to baseline
